Reference: patent publication US11680078B2, “Anticancer compounds” (GODAVARI BIOREFINERIES LIMITED, priority 2017, dated 2023)
pIC50: −log10 of the molar value. Several values for one entry are separate records, joined by “and”; a condition that tells them apart may be missing. Equal values may be shown once.

Columns and labels:
MCF7 = assay: MTT antiproliferative assay, MCF7; assay type: cell-based; conditions: MCF-7 breast cell line, 48 hrs drug incubation
Experimental: (§1) MTT assay is a simple and sensitive assay where, metabolic reducing activity of the cells is measured. The increase of this activity in time is taken as a parameter of cell growth. If treatment with a drug impairs this increase, the action may be a consequence of growth inhibition, cell killing or both. The compounds of Formula V to XIV of the present invention, standard cytotoxic drug (e.g. Cisplatin) were tested at different concentrations (1, 0.1, 0.01, 0.001 mM) using breast and prostate cancer cell lines. All cell lines were cultured in a 37° C. incubator with a 5% CO2 environment. Compounds were dissolved in DMSO with a concentration of 0.1M (stock solution). Cells were seeded into 96-well plates at suitable plating efficiency.
(§2) Following Plating Efficiencies were Standardized for MTT Assay:
(§3) The MTT procedure followed was as follows. Briefly, the cells were plated in 96 well plate as per predetermined plating efficiency (Table 1) The plates were then incubated for 24 hrs in 5% CO2 atmosphere at 37° C. Appropriate concentrations of the drugs were then added to the plate and further incubation was carried out for 48 hrs (in 5% CO2 atmosphere at 37° C.). The assay plate was then centrifuged twice at 3000 rpm for 3 mins and supernatant was then discarded. 100 ul of MTT solution (0.5 mg/ml) was then added to each well of the plate and it was further incubated for 4 hrs (in 5% CO2 atmosphere at 37° C.) Following 4 hr incubation, the plate was then centrifuged twice, and supernatant was aspirated off very carefully. 200 ul of DMSO was then added to each well to solubilize. MTT crystals and mixed well by shaking the plate. XY graph of log Percent viability was then plotted against log drug concentration. […] (Drug concentration inhibiting the 50% of cell population) was then calculated by regression analysis.

MDAMB231 [1] = assay: MTT antiproliferative assay, MDAMB231; assay type: cell-based; conditions: MDAMB231 breast cell line, 48 hrs drug incubation
Experimental: as §1, §2, §3

PC3 [2] = assay: MTT antiproliferative assay, PC3; assay type: cell-based; conditions: PC3 prostate cell line, 48 hrs drug incubation
Experimental: as §1, §2, §3

DU145 = assay: MTT antiproliferative assay, DU145; assay type: cell-based; conditions: DU145 prostate cell line, 48 hrs drug incubation
Experimental: as §1, §2, §3

MDAMB231 [3] = assay: Soft Agar colony-formation Assay, MDAMB231; assay type: cell-based; conditions: MDAMB231 breast cell line, 1 week
Experimental: (§4) The Soft Agar Colony-formation Assay is an anchorage-independent growth assay in soft agar, which is one of the most stringent assays for detecting malignant transformation of cells. For this assay, malignant cells are cultured with appropriate controls in soft agar medium for 1-2 weeks. Following this incubation period, formed colonies can either be analyzed morphologically using cell stain and quantifying the number of colonies formed.
(§5) Briefly, for Soft Agar Assay a mixture of 50 ul of 2× medium (taken appropriately as per cell line) and 50 ul of 1.2% Bacto Agar were plated on to each well of 96 well micro titer assay plate. 10 ul of cells (Of specific plating efficiency pre-standardized for respective cell line) were mixed with 20 ul of 2× medium and 30 ul of 0.8% of Bacto Agar and 1.6 ul of drug (of appropriate concentration) in a vial and transferred to the solidified pre-layers of the assay plates. The cells were then allowed to grow and form colonies at 37° C. and 5% CO2 for 1 week. An intermittent feeding with 50 ul of appropriate 2× medium was performed after 3 days of experimental set up. 16 ul of Alamar Blue (1.5 mg/ml) was then added to all the wells to quantify the developed colonies. The plates were incubated for 24 hrs at 37° C. Absorbance was then measured at 630 nm. XY graph of log Percent viability was then plotted against log drug concentration. IC50 (Drug concentration inhibiting the 50% of cell population) was then calculated by regression analysis.
(§6) Following Plating Efficiencies Were Standardized for Soft Agar Assay: […]

PC3 [4] = assay: Soft Agar colony-formation Assay, PC3; assay type: cell-based; conditions: PC3 prostate cell line, 1 week
Experimental: as §4, §5, §6

spheres of MDAMB231 = assay: In vitro sphere-forming assay, MDAMB231 in Mammosphere media; assay type: cell-based; conditions: 2000 cells/well, n = 6 ± S.D
Description: (§7) Sphere assay measures the ability of Cancer Stein Cells to form spheres in specially designed serum-free medium. We have used this assay to measure the killing efficiency of the test compounds as compared to the standard chemotherapeutic drug, Cisplatin.
(§8) Materials and Reagents:50× B27 Supplement (Life Technologies, Invitrogen, Catalog No.: 17502-044), Fibroblast Growth Factor (FGF) (Sigma-Aldrich, Catlog No.: F029125), Epidermal Growth Factor (EGF) (Sigma-Aldrich, Catlog No.: E9644), Insulin (Sigma, Catlog No.: 19278), Dulbecco's Modified Eagle Medium/F12 (HiMedia Catlog No.: AL139-6), Dulbecco's Phosphate Buffered Saline (HiMedia Catlog No.: TL1006), Trypan Blue (TC193), Prostate Epithelial Media (LONZA, Catlog No.: CC-3166) MEGM (LONZA, Catlog No.: CC-3051), Heparin (Sigma, Catlog No.: H3393), Penstrep (HiMedia, Catlog No.: A002)
Mammosphere Media Preparation (For 100 mL): 1 g methyl cellulose autoclaved with magnetic stirrer Plain media (MEBM), 100 mL added and dissolved under magnetic stirring. After complete dissolution, add: FGF-80 μL, EGF-40 μL, Penstrep-1 mL, Heparin-400 μL.
(§9) Procedure: —The cells were trypsinised and made into single-cell suspension by passing through cell strainers ([…], respectively), The cells were diluted at the concentration of 2000 cells/100 μL and suspended in either Mammosphere (for breast cell lines) or Prostosphere (for prostate cell lines). 100 μL of this suspension was added into each well of 96-well suspension plates and incubated at 37° C., 5% CO2 for 24 hrs. Appropriate concentrations of the drugs (2 μL) were added into respective wells with 100 μL of stem cell culture medium. Plates were incubated at 37° C., 5% CO2 for 72 hrs. After incubation 2.5 μL of the respective drug concentration and 50 μL of stem cell culture medium were added into each well and the plates were further incubated at 37° C., 5% CO2 for 72 hrs. 3 μL of the respective drug concentration was added with 50 μL of stem cell culture medium again after incubation and plates were incubated again for 72 hrs at 37° C., 5% CO2. Number of primary spheres formed for each concentration was counted. A comparative graph of number of spheres formed was plotted against the concentration and the growth curve was compared with the positive control.

spheres of PC3 = assay: In vitro sphere-forming assay, PC3 in Prostosphere media; assay type: cell-based; conditions: 2000 cells/well, n = 6 ± S.D
Description: as §7, §8
Prostosphere Media Preparation (For 100 mL):1 g methyl cellulose autoclaved with magnetic stirrer, Plain media (Prostate Epithelial Basal Medium), 100 mL added and dissolved, under magnetic stirring. After complete dissolution, add: Insulin-40 μL, B27-2 mL, EGF-80 μL, Penstrep-1 ml.
as §9

normal lymphocytes = assay: Normal cell assay (MTT) on lymphocytes from a healthy donor
Experimental: In order to test the activity of cytotoxic drugs towards normal cells, we performed MTT
Assay for these cytotoxic drugs using lymphocytes obtained from a healthy donor.
Briefly, diluted defibrinated fresh blood was overlaid gradually on HiSeP LSM1077 and centrifuged at low speed for 30 mins. The lymphocyte layer (the buffy coat) (Fig) was carefully removed in a new collection tube. The buffy coat was given another wash, by the diluent buffer, to reduce the platelet contamination. The supernatant was discarded, and the pellet was resuspended in diluent buffer. The viability was checked by Haemocytometer. Cells with Viability and Purity of 95% and more were considered for the assay. MTT assay was performed with these cells as described above with plating efficiency of 0.7 million/ml.

[5] = Homo sapiens, MDA-MB-231, 168 h

pIC50 (MCF7; Homo sapiens, MCF7)	pIC50 (MDAMB231 [1]; Homo sapiens, MDA-MB-231)	pIC50 (PC3 [2]; Homo sapiens, PC-3)	pIC50 (DU145; Homo sapiens, DU-145)	pIC50 (MDAMB231 [3]; [5])	pIC50 (PC3 [4]; Homo sapiens, PC-3, 168 h)	SMILES	3D sphere count of MDAMB231 (spheres of MDAMB231; drug conc 0.025 uM)	3D sphere count of MDAMB231 (spheres of MDAMB231; drug conc 0.25 uM)	3D sphere count of MDAMB231 (spheres of MDAMB231; drug conc 2.5 uM)	3D sphere count of MDAMB231 (spheres of MDAMB231; drug conc 25 uM)	3D sphere count of MDAMB231 (spheres of MDAMB231; drug conc 250 uM)	3D sphere count of PC3 (spheres of PC3; drug conc 0.025 uM)	3D sphere count of PC3 (spheres of PC3; drug conc 0.25 uM)	3D sphere count of PC3 (spheres of PC3; drug conc 2.5 uM)	3D sphere count of PC3 (spheres of PC3; drug conc 25 uM)	3D sphere count of PC3 (spheres of PC3; drug conc 250 uM)	further results
5.31	5.47	4.71	5.01	5.67	5.47	O=C(Nc1ccc(-c2ccc3c(c2)OCO3)c2ccccc12)c1ccco1 [Formula XII, N-(1-(benzo[d][1,3]dioxol-5-yl)naphthalen-4-yl)furan-2-carboxamide]	31(±2)	27(±2)	17(±2)	8(±1)	0(±0)	37(±3)	28(±3)	23(±2)	15(±2)	0(±0)	–
–	5.00	5.25	–	4.85	5.49	CCOC(=O)c1c(C(=O)OCC)c(-c2ccc3c(c2)OCO3)c2cc(OC)c(OC)cc2c1OC1OC[C@@H](OC)[C@H](OC)[C@H]1O (stereo partly drawn) [Formula VI, diethyl 1-(benzo[d][1,3]dioxol-5-yl)-4-((3R,4R,5R)-3-hydroxy-4,5-dimethoxy-tetrahydro-2H-pyran-2-yloxy)-6,7-dimethoxynaphthalene-2,3-dicarboxylate]	44(±3)	36(±2)	24(±3)	7(±2)	0(±0)	40(±3)	28(±2)	30(±2)	21(±2)	0(±0)	activity on normal lymphocytes (normal lymphocytes): does not show activity
–	–	–	–	–	–	N.N.[Cl][Pt][Cl] [Cisplatin, reference compound]	50(±3) and 89(±4) and 62(±6) and 67(±2)	42(±3) and 69(±7) and 48(±2) and 58(±3)	35(±2) and 51(±5) and 43(±2) and 46(±3)	31(±3) and 38(±8) and 37(±4) and 35(±2)	18(±2) and 23(±5) and 31(±4) and 26(±3)	58(±4) and 47(±4) and 62(±5) and 45(±2)	47(±5) and 49(±7) and 55(±5) and 42(±3)	40(±3) and 41(±4) and 46(±2) and 39(±2)	32(±2) and 31(±5) and 33(±3) and 32(±3)	25(±3) and 30(±5) and 22(±4) and 21(±2)	pIC50 (MCF7): 4.53 and 4.49 and 4.48; pIC50 (MDAMB231 [1]): 4.49 and 4.41 and 4.43 and 4.45; pIC50 (PC3 [2]): 4.55 and 4.54 and 4.39 and 4.45 and 4.44; pIC50 (DU145): 4.62 and 4.37 and 4.46 and 4.45; pIC50 (MDAMB231 [3]): 4.38 and 4.61 and 4.43 and 4.62; pIC50 (PC3 [4]): 4.69 and 4.67 and 4.62 and 4.66
–	5.10	5.36	5.39	5.57	5.20	Cl.c1ccc(COc2ccc(-c3ccc4c(c3)OCO4)c3cccnc23)cc1 [Formula XIII, 5-(benzo[d][1,3]dioxol-5-yl)-8-(benzyloxy)quinoline hydrochloride]	45(±2)	36(±3)	27(±2)	13(±2)	0(±0)	41(±7)	39(±5)	27(±3)	14(±1)	0(±0)	–
5.36	5.01	5.38	4.99	5.68	4.72	O[C@@H]1[C@H](O)COC(Oc2ccc(-c3ccc4c(c3)OCO4)c3ccccc23)[C@H]1O (stereo partly drawn) [Formula XI, (3S,4R,5R)-2-(1-(benzo[d][1,3]dioxol-5-yl)naphthalen-4-yloxy)-tetrahydro-2H-pyran-3,4,5-triol]	–	–	–	–	–	–	–	–	–	–	–
5.28	5.28	5.25	5.05	5.67	5.32	O=C(Oc1ccc(-c2ccc3c(c2)OCO3)c2ccccc12)C(c1ccccc1)C1CCCC1 (stereo not drawn) [Formula IX, 1-(benzo[d][1,3]dioxol-5-yl)naphthalen-4-yl 2-cyclopentyl-2-phenylacetate]	52(±4)	40(±5)	26(±3)	22(±3)	0(±0)	60(±7)	44(±4)	37(±5)	31(±3)	0(±0)	–
5.46	5.50	5.59	5.48	5.68	5.62	Cn1cccc1C(=O)Oc1ccc(-c2ccc3c(c2)OCO3)c2ccccc12 [Formula X, 1-(benzo[d][1,3]dioxol-5-yl)naphthalen-4-yl 1-methyl-1H-pyrrole-2-carboxylate]	39(±4)	37(±4)	28(±3)	24(±3)	0(±0)	–	–	–	–	–	activity on normal lymphocytes (normal lymphocytes): does not show activity
